In ChEMBL document CHEMBL1201862, “PubChem BioAssay data set” (2004):
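These data come from cells grown in 96-well plates and exposed to compound for 48 hours at five concentrations. The concentration for 50% growth inhibition is given as GI50.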 Active and inactive are the calls of the source. Cut-off read from the data, not from the text of the source: active = GI50 up to about 1.1 µM and inactive = higher.

Experiments:
Experiment in all cases: DTP human tumour cell line panel, 48 h
RXF 393 = system: RXF 393
NCI-H23 = system: NCI-H23
OVCAR-5 = system: OVCAR-5
HOP-62 = system: HOP-62
HCT-15 = system: HCT-15
DMS-273 = system: DMS-273
KM-20L2 = system: KM-20L2
IGROV-1 = system: IGROV-1
HOP-18 = system: HOP-18
UO-31 = system: UO-31
DMS-114 = system: DMS-114
NCI-H460 = system: NCI-H460
786-0 = system: 786-0
HL-60 = system: HL-60
SF-295 = system: SF-295
SNB-19 = system: SNB-19
A498 = system: A498
HOP-92 = system: HOP-92
UACC-62 = system: UACC-62
SW-620 = system: SW-620
OVCAR-8 = system: OVCAR-8
SK-MEL-5 = system: SK-MEL-5
NCI-H522 = system: NCI-H522
UACC-257 = system: UACC-257
XF498 = system: XF498
U-251 = system: U-251
SK-MEL-2 = system: SK-MEL-2
HT-29 = system: HT-29
K562 = system: K562
KM12 = system: KM12
EKVX = system: EKVX
NCI-H226 = system: NCI-H226
LXFL 529 = system: LXFL 529
M14 = system: M14
CAKI-1 = system: CAKI-1
ACHN = system: ACHN
SN12C = system: SN12C
HCC 2998 = system: HCC 2998
SF-539 = system: SF-539
OVCAR-4 = system: OVCAR-4
TK-10 = system: TK-10
HCT-116 = system: HCT-116
SNB-75 = system: SNB-75
SNB-78 = system: SNB-78
A549 = system: A549
DLD-1 = system: DLD-1
SF-268 = system: SF-268
M19-MEL = system: M19-MEL
CCRF-CEM = system: CCRF-CEM
SK-OV-3 = system: SK-OV-3
SK-MEL-28 = system: SK-MEL-28
Malme-3M = system: Malme-3M
RPMI-8226 = system: RPMI-8226
COLO 205 = system: COLO 205
OVCAR-3 = system: OVCAR-3
LOX IMVI = system: LOX IMVI
MOLT-4 = system: MOLT-4

For `CN(C)c1nc(N(C)c2ccccc2)[s+]s1`, the GI50 (RXF 393) was > 100 µM (inactive), the GI50 (NCI-H23) was 65.6 µM (inactive) and the GI50 (OVCAR-5) was > 100 µM (inactive). The GI50 (HOP-62) was > 100 µM (inactive), the GI50 (HCT-15) was 54.3 µM and the GI50 (DMS-273) was 47.2 µM (inactive). The GI50 (KM-20L2) was > 100 µM (inactive), the GI50 (IGROV-1) was > 100 µM (inactive) and the GI50 (HOP-18) was > 100 µM (inactive). The GI50 (UO-31) was 99.1 µM (inactive), the GI50 (DMS-114) was 30.8 µM (inactive) and the GI50 (NCI-H460) was 16.7 µM (inactive). For the same compound, the GI50 (786-0) was 51.5 µM (inactive), the GI50 (HL-60) was 15.7 µM (inactive) and the GI50 (SF-295) was 78.3 µM (inactive). For the same compound, the GI50 (SNB-19) was > 100 µM (inactive), the GI50 (A498) was 50.8 µM (inactive) and the GI50 (HOP-92) was > 100 µM (inactive). The GI50 (UACC-62) was 12.3 µM (inactive), the GI50 (SW-620) was > 100 µM (inactive) and the GI50 (OVCAR-8) was 66.7 µM (inactive). For the same compound, the GI50 (SK-MEL-5) was 36.5 µM (inactive), the GI50 (NCI-H522) was > 100 µM (inactive) and the GI50 (UACC-257) was 54.2 µM (inactive). The GI50 (XF498) was 20 µM (inactive), the GI50 (U-251) was 31.6 µM (inactive) and the GI50 (SK-MEL-2) was > 100 µM (inactive). For the same compound, the GI50 (HT-29) was 89.5 µM (inactive), the GI50 (K562) was 35.1 µM (inactive) and the GI50 (KM12) was 36.3 µM (inactive). For the same compound, the GI50 (EKVX) was > 100 µM (inactive), the GI50 (NCI-H226) was 99.8 µM (inactive) and the GI50 (LXFL 529) was 36.8 µM (inactive). For the same compound, the GI50 (M14) was 32.4 µM (inactive), the GI50 (CAKI-1) was > 100 µM (inactive) and the GI50 (ACHN) was > 100 µM (inactive). For the same compound, the GI50 (SN12C) was 44.8 µM (inactive), the GI50 (HCC 2998) was > 100 µM (inactive) and the GI50 (SF-539) was 57.9 µM (inactive). For the same compound, the GI50 (OVCAR-4) was > 100 µM (inactive), the GI50 (TK-10) was > 100 µM (inactive) and the GI50 (HCT-116) was 41.7 µM (inactive). The GI50 (SNB-75) was 83.2 µM (inactive), the GI50 (SNB-78) was > 100 µM (inactive) and the GI50 (A549) was 53.3 µM (inactive). For the same compound, the GI50 (DLD-1) was 92.3 µM (inactive), the GI50 (SF-268) was 63.5 µM (inactive) and the GI50 (M19-MEL) was 18.9 µM (inactive). The GI50 (CCRF-CEM) was 35.7 µM (inactive), the GI50 (SK-OV-3) was > 100 µM (inactive) and the GI50 (SK-MEL-28) was 64.3 µM (inactive). The GI50 (Malme-3M) was 60.4 µM (inactive).

With `Cc1nc(Nc2ccccc2)sc1C(=O)NNC(N)=O` the GI50 (RXF 393) was 29.2 µM (inactive), the GI50 (NCI-H23) was > 100 µM (inactive) and the GI50 (RPMI-8226) was > 100 µM (inactive). The GI50 (OVCAR-5) was > 100 µM (inactive), the GI50 (HOP-62) was 49.8 µM (inactive) and the GI50 (DMS-273) was > 100 µM (inactive). For the same compound, the GI50 (KM-20L2) was > 100 µM (inactive), the GI50 (IGROV-1) was > 100 µM (inactive) and the GI50 (HOP-18) was > 100 µM (inactive). For the same compound, the GI50 (UO-31) was > 100 µM (inactive), the GI50 (DMS-114) was 84.5 µM (inactive) and the GI50 (NCI-H460) was > 100 µM (inactive). The GI50 (786-0) was > 100 µM (inactive), the GI50 (COLO 205) was > 100 µM (inactive) and the GI50 (HL-60) was > 100 µM (inactive). For the same compound, the GI50 (SF-295) was > 100 µM (inactive), the GI50 (SNB-19) was > 100 µM (inactive) and the GI50 (OVCAR-3) was > 100 µM (inactive). For the same compound, the GI50 (A498) was 46.9 µM (inactive), the GI50 (HOP-92) was 64.4 µM (inactive) and the GI50 (UACC-62) was > 100 µM (inactive). The GI50 (SW-620) was > 100 µM (inactive), the GI50 (OVCAR-8) was > 100 µM (inactive) and the GI50 (SK-MEL-5) was > 100 µM (inactive). For the same compound, the GI50 (NCI-H522) was > 100 µM (inactive), the GI50 (UACC-257) was 27.4 µM (inactive) and the GI50 (XF498) was > 100 µM (inactive). For the same compound, the GI50 (U-251) was 99.3 µM (inactive), the GI50 (SK-MEL-2) was > 100 µM (inactive) and the GI50 (K562) was > 100 µM (inactive). The GI50 (KM12) was > 100 µM (inactive), the GI50 (EKVX) was 55.6 µM (inactive) and the GI50 (NCI-H226) was > 100 µM (inactive). The GI50 (LXFL 529) was > 100 µM (inactive), the GI50 (M14) was > 100 µM (inactive) and the GI50 (CAKI-1) was > 100 µM (inactive). For the same compound, the GI50 (ACHN) was > 100 µM (inactive), the GI50 (SN12C) was > 100 µM (inactive) and the GI50 (HCC 2998) was > 100 µM (inactive). For the same compound, the GI50 (SF-539) was > 100 µM (inactive), the GI50 (LOX IMVI) was > 100 µM (inactive) and the GI50 (OVCAR-4) was > 100 µM (inactive). The GI50 (TK-10) was > 100 µM (inactive), the GI50 (HCT-116) was > 100 µM (inactive) and the GI50 (SNB-75) was 29.6 µM (inactive). The GI50 (SNB-78) was > 100 µM (inactive), the GI50 (A549) was > 100 µM (inactive) and the GI50 (MOLT-4) was > 100 µM (inactive). For the same compound, the GI50 (DLD-1) was > 100 µM (inactive), the GI50 (SF-268) was > 100 µM (inactive) and the GI50 (M19-MEL) was > 100 µM (inactive). The GI50 (CCRF-CEM) was > 100 µM (inactive), the GI50 (SK-OV-3) was > 100 µM (inactive) and the GI50 (SK-MEL-28) was > 100 µM (inactive). For the same compound, the GI50 (Malme-3M) was > 100 µM (inactive).

`CN(C)c1ccc(/C=C/C(=O)O)cc1` was tested, and the GI50 (RPMI-8226) was > 100 µM (inactive), the GI50 (OVCAR-5) was > 100 µM (inactive) and the GI50 (HOP-62) was > 100 µM (inactive). The GI50 (HCT-15) was greater than 100 µM, the GI50 (KM-20L2) was > 100 µM (inactive) and the GI50 (IGROV-1) was > 100 µM (inactive). For the same compound, the GI50 (HOP-18) was > 100 µM (inactive), the GI50 (UO-31) was > 100 µM (inactive) and the GI50 (DMS-114) was > 100 µM (inactive). For the same compound, the GI50 (NCI-H460) was > 100 µM (inactive), the GI50 (COLO 205) was > 100 µM (inactive) and the GI50 (HL-60) was > 100 µM (inactive). The GI50 (SF-295) was > 100 µM (inactive), the GI50 (SNB-19) was > 100 µM (inactive) and the GI50 (OVCAR-3) was 49.3 µM (inactive). For the same compound, the GI50 (A498) was > 100 µM (inactive), the GI50 (UACC-62) was > 100 µM (inactive) and the GI50 (SW-620) was > 100 µM (inactive). The GI50 (OVCAR-8) was > 100 µM (inactive), the GI50 (SK-MEL-5) was > 100 µM (inactive) and the GI50 (NCI-H522) was > 100 µM (inactive). For the same compound, the GI50 (UACC-257) was > 100 µM (inactive), the GI50 (XF498) was > 100 µM (inactive) and the GI50 (SK-MEL-2) was > 100 µM (inactive). For the same compound, the GI50 (HT-29) was > 100 µM (inactive), the GI50 (K562) was > 100 µM (inactive) and the GI50 (KM12) was > 100 µM (inactive). The GI50 (EKVX) was > 100 µM (inactive), the GI50 (NCI-H226) was > 100 µM (inactive) and the GI50 (LXFL 529) was > 100 µM (inactive). For the same compound, the GI50 (M14) was > 100 µM (inactive), the GI50 (CAKI-1) was > 100 µM (inactive) and the GI50 (ACHN) was > 100 µM (inactive). The GI50 (SN12C) was > 100 µM (inactive), the GI50 (HCC 2998) was > 100 µM (inactive) and the GI50 (SF-539) was > 100 µM (inactive). For the same compound, the GI50 (LOX IMVI) was > 100 µM (inactive), the GI50 (HCT-116) was > 100 µM (inactive) and the GI50 (SNB-75) was > 100 µM (inactive). For the same compound, the GI50 (SNB-78) was > 100 µM (inactive), the GI50 (A549) was > 100 µM (inactive) and the GI50 (MOLT-4) was > 100 µM (inactive). For the same compound, the GI50 (DLD-1) was > 100 µM (inactive), the GI50 (SF-268) was > 100 µM (inactive) and the GI50 (M19-MEL) was > 100 µM (inactive). The GI50 (CCRF-CEM) was > 100 µM (inactive), the GI50 (SK-OV-3) was > 100 µM (inactive) and the GI50 (Malme-3M) was > 100 µM (inactive).
